Measured values: paper PMC7926793, “Synthesis and Biological Evaluation of 1-(Diarylmethyl)-1H-1,2,4-triazoles and 1-(Diarylmethyl)-1H-imidazoles as a Novel Class of Anti-Mitotic Agent for Activity in Breast Cancer” (Pharmaceuticals, 2021)

What was measured:
[1] = test system: MCF-7 human breast cancer cells; test: alamarBlue cell viability assay; assay type: cell-based; conditions: Homo sapiens, 72 h; for IC50: MCF7, 72 h, alamarBlue, read-out: Antiproliferative Activity MCF-7 Cells IC50
Description: (§1) The human breast carcinoma cell line MCF-7 was purchased from the European Collection of Animal Cell Cultures (ECACC) and cultured in Eagles minimum essential medium with 10% foetal bovine serum, 2 mM L-glutamine, and 100 μg/mL penicillin/streptomycin. The medium was supplemented with 1% non-essential amino acids. The human breast carcinoma cell line MDA-MB-231 was purchased from the ECACC. MDA-MB-231 cells were maintained in Dulbecco’s modified Eagle’s medium (DMEM) supplemented with 10% (v/v) foetal bovine serum, 2 mM L-glutamine, and 100 μg/mL penicillin/streptomycin (complete medium). HL-60 cells were derived from a patient with acute myeloid leukaemia and were obtained from the ECACC (Salisbury, UK). Cells were cultured in RPMI-1640 Glutamax medium supplemented with 10% FCS media and 100 μg/mL penicillin/streptomycin. MCF-10A cells were obtained as a kind gift from Dr Susan McDonnell, School of Chemical and Bioprocess Engineering, University College Dublin and were cultured in Dulbecco’s Modified Eagle Medium: Nutrient Mixture F-12 (DMEM/F12; Gibco) supplemented with 5% horse serum (Invitrogen), 20 ng mL^−1 epidermal growth factor (Merck Millipore), 0.5 μg mL^−1 hydrocortisone (Sigma,-Aldrich, Arklow, Co. Wicklow, Ireland), 100 ng mL^−1 cholera toxin (Sigma, Aldrich, Arklow, Co. Wicklow, Ireland), 10 μg mL^−1 insulin (Sigma, Aldrich, Arklow, Co. Wicklow, Ireland), and penicillin/streptomycin 5000 U mL^−1 (1%)(Gibco, Biosciences, 3 Charlemont Terrace, Crofton Road, Dun Laoghaire, Co Dublin, A96 K7H7, Ireland). Cells were maintained at 37 °C in 5% CO2 in a humidified incubator. All cells were sub-cultured 3 times/week by trypsinisation using TrypLE Express (1×).
(§2) Cells were seeded at a density of 2.5 × 10^4 cells/well (MCF-7, MDA-MB-231, MCF-10A cells) and 1 × 10^4 cells/well (HL-60) in 96-well plates (200 μL per well). After 24 h, cells were then treated with either medium alone, vehicle control (1% ethanol (v/v)) or with serial dilutions of CA-4 (4a), phenstatin (7a) or selected compounds (0.001–100 μM) in triplicate. Cell proliferation for MCF-7, MDA-MB-231, and MCF-10A cells was analysed using the alamarBlue assay (Invitrogen Corp.) according to the manufacturer’s instructions. After 67–69 h, alamarBlue (10% (v/v)) was added to each well, and plates were incubated for 3–5 h at 37 °C in the dark. Fluorescence was read using a 96-well fluorimeter with excitation at 530 nm and emission at 590 nm. Results were expressed as percentage viability relative to vehicle control (100%).

[2] = test system: tubulin (microtubule network) in MCF-7 cells; test: immunofluorescence confocal microscopy of microtubule network; assay type: cell-based, human; conditions: 1 μM, 16 h
Description: Confocal microscopy was used to study the effects of drug treatment on MCF-7 cytoskeleton. For immunofluorescence, MCF-7 cells were seeded at 1 × 10^5 cells/mL on eight chamber glass slides (BD Biosciences). […] Following treatment, cells were gently washed in PBS, fixed for 20 min with 4% paraformaldehyde in PBS, and permeabilised in 0.5% Triton X-100. Following washes in PBS containing 0.1% Tween (PBST), cells were blocked in 5% bovine serum albumin diluted in PBST. […] Following washes in PBST, the cells were mounted in Ultra Cruz Mounting Media (Santa Cruz Biotechnology, Santa Cruz, CA) containing 4,6-diamino-2-phenolindol dihydrochloride (DAPI). Images were captured by Leica SP8 confocal microscopy with Leica application suite X software. All images in each experiment were collected on the same day using identical parameters. Experiments were performed on three independent occasions.

[3] = test system: MDA-MB-231 human breast cancer cells; test: alamarBlue cell viability assay; assay type: cell-based; conditions: Homo sapiens, MDA-MB-231, 72 h, read-out: Antiproliferative Activity MDA-MB-231 Cells IC50
Description: as §1, §2

HL-60 leukaemia cells = test: cell viability assay; assay type: cell-based; conditions: Homo sapiens, read-out: Antiproliferative Activity HL-60 Cells IC50
Description: as §1, with “Cells were maintained at 37 °C in 5% CO2 in a humidified incubator. All cells were sub-cultured 3 times/week by trypsinisation using TrypLE Express (1×).” left out
Cells were seeded at a density of 2.5 × 10^4 cells/well (MCF-7, MDA-MB-231, MCF-10A cells) and 1 × 10^4 cells/well (HL-60) in 96-well plates (200 μL per well). […] Cell proliferation for MCF-7, MDA-MB-231, and MCF-10A cells was analysed using the alamarBlue assay (Invitrogen Corp.) according to the manufacturer’s instructions. […] Fluorescence was read using a 96-well fluorimeter with excitation at 530 nm and emission at 590 nm. Results were expressed as percentage viability relative to vehicle control (100%).

[4] = MCF7, read-out: cell viability (viable cells)

Structure (SMILES) | viability at 1 µM [1, 4] | melting point | further results
O=[N+]([O-])c1ccc(C(c2ccccc2)n2ccnc2)cc1 (stereo not drawn) [20b] | 73% |  | 
COc1ccc(C(c2cc(OC)c(OC)c(OC)c2)N2CCN(c3ccccc3)CC2)cc1OCc1ccccc1 (stereo not drawn) [27g, 1-((3-(Benzyloxy)-4-Methoxyphenyl)(3,4,5-Trimethoxyphenyl)Methyl)-4-Phenylpiperazine] |  | 124 to 126 °C | 
COc1ccc(C(c2cc(OC)c(OC)c(OC)c2)N2CCN(c3ccc(C)cc3)CC2)cc1 (stereo not drawn) [27f] | 76% |  | viability at 0.1 µM ([1]; MCF7, 0.1 μM, read-out: cell viability (viable cells)): 84%; viability at 10 µM [1, 4]: 42%
Nc1ccc(C(c2ccccc2)n2cncn2)cc1 (stereo not drawn) [13m, 4-(Phenyl(1H-1,2,4-Triazol-1-yl)Methyl)Aniline] | 72% | 149 to 151 °C | 
COc1cc(C(c2cc(OC)c(OC)c(OC)c2)n2ccnc2)cc(OC)c1OC [21i, 1-(Bis(3,4,5-Trimethoxyphenyl)Methyl)-1H-Imidazole] |  | 154 to 156 °C | 
CC(=O)O[C@H]1C(=O)[C@@]2(C)[C@H]([C@H](OC(=O)c3ccccc3)[C@]3(O)C[C@H](OC(=O)[C@H](O)[C@@H](NC(=O)c4ccccc4)c4ccccc4)C(C)=C1C3(C)C)[C@]1(OC(C)=O)CO[C@@H]1C[C@@H]2O [paclitaxel, reference compound] |  |  | effect on microtubule network of MCF-7 cells [2]: Hyperpolymerisation of tubulin
O=C(Nc1ccc(C(c2ccccc2)n2cncn2)cc1)C(F)(F)F (stereo not drawn) [13i, 2,2,2-Trifluoro-N-(4-(Phenyl(1H-1,2,4-Triazol-1-yl)Methyl)Phenyl)Acetamide] |  | 143 to 145 °C | 
COc1cc(C(c2ccccc2)n2cncn2)cc(OC)c1OC (stereo not drawn) [16e, 1-(Phenyl(3,4,5-Trimethoxyphenyl)Methyl)-1H-1,2,4-Triazole] |  | 139 to 140 °C | 
COc1ccc(/C=C\c2cc(OC)c(OC)c(OC)c2)cc1O [CA-4, reference compound] | 24% |  | IC50 [1]: 3.9 ± 0.32 nM; IC50 [3]: 43 nM; IC50 (HL-60 leukaemia cells): 1.9 ± 0.5 nM
Brc1ccc(C(c2ccccc2)n2ccnc2)cc1 (stereo not drawn) [20c, 1-((4-Bromophenyl)(Phenyl)methyl)-1H-Imidazole] |  | 126 to 128 °C | 
Oc1ccc(C(c2ccc(O)cc2)n2cncn2)cc1 [13o] | 68% |  | 
COc1ccc(C(c2ccccc2)N2CCCC2)cc1 (stereo not drawn) [25d] | 80% |  | 
COc1ccc(C(c2cc(OC)c(OC)c(OC)c2)n2cncn2)cc1OCc1ccccc1 (stereo not drawn) [19a, 1-((3-(Benzyloxy)-4-Methoxyphenyl)(3,4,5-Trimethoxyphenyl)Methyl)-1H-1,2,4-Triazole] |  | 98 to 100 °C | 
COc1cc(C(c2ccc(F)cc2)n2cncn2)cc(OC)c1OC (stereo not drawn) [16g] | 77% |  | 
COc1ccc(C(c2cc(OC)c(OC)c(OC)c2)N2CCN(c3ccccc3)CC2)cc1O (stereo not drawn) [27i, 2-Methoxy-5-((4-Phenylpiperazin-1-yl)(3,4,5-Trimethoxyphenyl)Methyl)Phenol] |  |  | viability at 10 µM [1, 4]: 48%
Oc1ccc(C(c2ccccc2)n2cncn2)cc1 (stereo not drawn) [13n, 4-(Phenyl(1H-1,2,4-Triazol-1-yl)Methyl)Phenol] |  | 189 to 191 °C | 
Fc1ccc(C(c2ccccc2)n2ccnc2)cc1 (stereo not drawn) [20d] | 67% |  | 
Brc1ccc(C(c2ccccc2)N2CCCC2)cc1 (stereo not drawn) [25b, 1-((4-Bromophenyl)(Phenyl)methyl)Pyrrolidine] |  | 70 to 72 °C | 
c1ccc(COc2ccc(C(c3ccccc3)n3cncn3)cc2)cc1 (stereo not drawn) [13j, 1-((4-(Benzyloxy)Phenyl)(Phenyl)Methyl)-1H-1,2,4-Triazole] |  | 132 to 134 °C | 
N#Cc1ccc(C(c2ccc(OCc3ccccc3)cc2)n2cncn2)cc1 (stereo not drawn) [19g, 4-((4-(Benzyloxy)Phenyl)(1H-1,2,4-Triazol-1-yl)Methyl)Benzonitrile] |  | 79 to 81 °C | 
COc1ccc(C(c2cc(OC)c(OC)c(OC)c2)n2cncn2)cc1 (stereo not drawn) [16c] | 75% |  | 
COc1ccc(C(c2ccc(C#N)cc2)n2cncn2)cc1OCc1ccccc1 (stereo not drawn) [19f, 4-((3-(Benzyloxy)-4-Methoxyphenyl)(1H-1,2,4-Triazol-1-yl)Methyl)Benzonitrile] |  | 91 to 93 °C | 
COc1ccc(C(c2ccc(C#N)cc2)n2cncn2)cc1O (stereo not drawn) [19h, 4-((3-Hydroxy-4-Methoxyphenyl)(1H-1,2,4-Triazol-1-yl)Methyl)Benzonitrile] |  | 168 to 170 °C | IC50 [1]: > 100000 nM
CCOc1ccc(C(c2ccccc2)n2cncn2)cc1 (stereo not drawn) [13l, 1-((4-Ethoxyphenyl)(Phenyl)Methyl)-1H-1,2,4-Triazole] |  | 98 to 100 °C | 
N#Cc1ccc(C(c2ccc(O)cc2)n2cncn2)cc1 (stereo not drawn) [19i, 4-((4-Hydroxyphenyl)(1H-1,2,4-Triazol-1-yl)Methyl)Benzonitrile] |  |  | IC50 [1]: > 100000 nM
Fc1ccc(C(c2ccccc2)n2cncn2)cc1 (stereo not drawn) [13c, 1-((4-Fluorophenyl)(Phenyl)Methyl)-1H-1,2,4-Triazole] |  | 96 to 99 °C | 
